In ChEMBL document CHEMBL5465560, “Selectivity Literature for EUbOPEN Chemogenomic Library” (2024):
One block for each compound: values may come before it.

Columns and labels:
[1] = molecular target: Homeodomain-interacting protein kinase 3 (Homo sapiens, UniProt Q9H422); experiment: Selectivity interaction (KinomeScan (DiscoverX, competition-binding assay)) EUB0001547a HIPK3
[2] = molecular target: Serine/threonine-protein kinase 17B (Homo sapiens, UniProt O94768); experiment: Selectivity interaction (KinomeScan (competition-binding assay, DiscoverX)) EUB0001547a STK17B
[3] = molecular target: Calcium/calmodulin-dependent protein kinase type IV (Homo sapiens, UniProt Q16566); experiment: Selectivity interaction (KinomeScan (DiscoverX, competition-binding assay)) EUB0001547a CAMK4
[4] = molecular target: Death-associated protein kinase 1 (Homo sapiens, UniProt P53355); experiment: Selectivity interaction (KinomeScan (DiscoverX, competition-binding assay)) EUB0001547a DAPK1
[5] = molecular target: Cyclin-dependent kinase 7 (Homo sapiens, UniProt P50613); experiment: Selectivity interaction (KinomeScan (DiscoverX, competition-binding assay)) EUB0001547a CDK7
[6] = molecular target: Mitogen-activated protein kinase 15 (Homo sapiens, UniProt Q8TD08); experiment: Selectivity interaction (KinomeScan (DiscoverX, competition binding assay)) EUB0001547a MAPK15
Sequence of Mitogen-activated protein kinase 15 (Q8TD08 whole entry): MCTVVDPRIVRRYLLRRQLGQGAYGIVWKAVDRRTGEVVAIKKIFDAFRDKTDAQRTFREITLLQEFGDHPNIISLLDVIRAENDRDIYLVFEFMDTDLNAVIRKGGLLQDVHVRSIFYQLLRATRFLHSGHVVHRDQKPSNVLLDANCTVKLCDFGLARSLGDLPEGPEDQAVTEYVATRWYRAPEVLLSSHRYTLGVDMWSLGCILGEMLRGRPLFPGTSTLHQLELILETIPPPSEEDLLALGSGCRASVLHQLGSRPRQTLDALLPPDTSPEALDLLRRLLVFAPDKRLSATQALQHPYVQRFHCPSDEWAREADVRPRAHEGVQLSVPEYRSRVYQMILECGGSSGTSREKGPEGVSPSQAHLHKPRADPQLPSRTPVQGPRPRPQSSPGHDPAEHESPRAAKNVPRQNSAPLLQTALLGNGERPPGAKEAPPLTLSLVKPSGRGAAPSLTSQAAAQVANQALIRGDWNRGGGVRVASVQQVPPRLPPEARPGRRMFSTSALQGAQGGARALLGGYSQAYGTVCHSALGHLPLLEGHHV

[7] = molecular target: T1, Mitotic checkpoint serine/threonine-protein kinase BUB1 (Homo sapiens, UniProt O43683); experiment: Selectivity interaction (Kinase panel (literature)) EUB0001549a BUB1
T1 sequence (O43683 whole entry): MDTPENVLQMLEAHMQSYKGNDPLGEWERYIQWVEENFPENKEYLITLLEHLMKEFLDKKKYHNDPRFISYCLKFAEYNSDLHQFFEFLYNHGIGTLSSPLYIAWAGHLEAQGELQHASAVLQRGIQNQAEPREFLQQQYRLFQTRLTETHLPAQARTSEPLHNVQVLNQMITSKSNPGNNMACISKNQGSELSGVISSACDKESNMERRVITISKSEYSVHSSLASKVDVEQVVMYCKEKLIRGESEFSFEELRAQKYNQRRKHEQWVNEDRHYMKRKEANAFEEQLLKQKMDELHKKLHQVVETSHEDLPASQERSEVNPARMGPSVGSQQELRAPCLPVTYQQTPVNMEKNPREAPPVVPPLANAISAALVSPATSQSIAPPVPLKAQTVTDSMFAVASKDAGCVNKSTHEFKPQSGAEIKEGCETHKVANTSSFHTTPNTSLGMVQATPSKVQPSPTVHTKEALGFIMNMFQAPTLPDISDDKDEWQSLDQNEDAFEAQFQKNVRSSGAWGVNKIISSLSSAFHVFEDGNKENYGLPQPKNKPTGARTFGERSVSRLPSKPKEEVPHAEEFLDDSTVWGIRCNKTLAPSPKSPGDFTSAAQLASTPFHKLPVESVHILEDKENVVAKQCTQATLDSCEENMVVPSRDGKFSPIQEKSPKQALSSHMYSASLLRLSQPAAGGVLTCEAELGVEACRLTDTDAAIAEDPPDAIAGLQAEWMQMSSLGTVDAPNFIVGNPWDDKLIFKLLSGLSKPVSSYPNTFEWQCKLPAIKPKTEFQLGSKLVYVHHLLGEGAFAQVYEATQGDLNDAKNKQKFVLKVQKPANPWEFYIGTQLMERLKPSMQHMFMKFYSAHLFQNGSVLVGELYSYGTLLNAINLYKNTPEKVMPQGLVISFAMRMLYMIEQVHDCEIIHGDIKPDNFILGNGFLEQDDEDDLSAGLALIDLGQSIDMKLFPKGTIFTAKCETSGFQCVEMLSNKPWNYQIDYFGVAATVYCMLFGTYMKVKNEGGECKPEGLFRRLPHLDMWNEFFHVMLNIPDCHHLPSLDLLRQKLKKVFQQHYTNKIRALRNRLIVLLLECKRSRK

[8] = molecular target: T2, Alpha-1A adrenergic receptor (Homo sapiens) (UniProt P35348); experiment: Selectivity interaction (GPCR panel (PDSP screen)) EUB0001492b ADRA1A; conditions: at 10 µM
T2 sequence (whole entry): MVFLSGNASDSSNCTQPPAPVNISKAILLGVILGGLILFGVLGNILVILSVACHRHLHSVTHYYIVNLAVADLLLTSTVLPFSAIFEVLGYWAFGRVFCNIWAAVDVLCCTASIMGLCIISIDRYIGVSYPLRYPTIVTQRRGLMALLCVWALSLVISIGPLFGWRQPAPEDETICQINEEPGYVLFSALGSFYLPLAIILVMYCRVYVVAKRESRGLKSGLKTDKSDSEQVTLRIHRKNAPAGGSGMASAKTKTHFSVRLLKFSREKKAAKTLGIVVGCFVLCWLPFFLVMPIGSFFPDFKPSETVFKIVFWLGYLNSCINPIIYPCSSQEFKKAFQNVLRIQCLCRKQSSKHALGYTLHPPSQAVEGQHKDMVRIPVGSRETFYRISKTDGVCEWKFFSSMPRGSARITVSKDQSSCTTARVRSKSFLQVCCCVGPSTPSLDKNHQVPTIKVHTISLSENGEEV

[9] = molecular target: T3, 4-aminobutyrate aminotransferase, mitochondrial (Homo sapiens, UniProt P80404); experiment: (§1) Selectivity interaction (GPCR panel (PDSP screen)) EUB0001492b ABAT
T3 sequence (P80404 whole entry): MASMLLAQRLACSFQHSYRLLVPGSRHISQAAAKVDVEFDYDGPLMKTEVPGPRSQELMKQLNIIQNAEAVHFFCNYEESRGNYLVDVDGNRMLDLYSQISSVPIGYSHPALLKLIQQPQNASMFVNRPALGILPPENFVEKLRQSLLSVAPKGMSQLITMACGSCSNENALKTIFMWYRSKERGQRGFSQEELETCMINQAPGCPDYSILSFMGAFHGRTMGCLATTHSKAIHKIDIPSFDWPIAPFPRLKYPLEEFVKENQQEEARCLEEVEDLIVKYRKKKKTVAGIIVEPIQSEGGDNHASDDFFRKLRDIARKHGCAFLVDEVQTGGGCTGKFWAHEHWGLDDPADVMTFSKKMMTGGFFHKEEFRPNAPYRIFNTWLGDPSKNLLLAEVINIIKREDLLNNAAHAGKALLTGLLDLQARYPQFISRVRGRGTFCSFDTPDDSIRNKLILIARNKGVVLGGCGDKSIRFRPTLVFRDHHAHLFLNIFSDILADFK

[10] = molecular target: D(2) dopamine receptor (Homo sapiens, UniProt P14416); experiment: Selectivity interaction (GPCR panel (PDSP screen)) EUB0001492b DRD2; conditions: at 10 µM
Sequence of D(2) dopamine receptor (P14416 whole entry): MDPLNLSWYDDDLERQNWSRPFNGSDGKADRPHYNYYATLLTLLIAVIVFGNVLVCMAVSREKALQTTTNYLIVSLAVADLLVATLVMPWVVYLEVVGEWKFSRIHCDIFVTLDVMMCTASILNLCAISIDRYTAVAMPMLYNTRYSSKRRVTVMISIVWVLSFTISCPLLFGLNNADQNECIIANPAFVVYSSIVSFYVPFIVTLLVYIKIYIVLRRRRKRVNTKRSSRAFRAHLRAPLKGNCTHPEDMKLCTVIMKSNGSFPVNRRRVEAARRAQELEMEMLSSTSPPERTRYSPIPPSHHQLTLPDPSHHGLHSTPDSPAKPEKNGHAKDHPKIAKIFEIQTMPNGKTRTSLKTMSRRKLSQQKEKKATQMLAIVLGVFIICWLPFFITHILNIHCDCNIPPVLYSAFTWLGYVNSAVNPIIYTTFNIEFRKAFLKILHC

[11] = molecular target: T3, 4-aminobutyrate aminotransferase, mitochondrial; experiment: as §1; conditions: at 10 µM
[12] = molecular target: Interleukin-1 receptor-associated kinase 3 (Homo sapiens, UniProt Q9Y616); experiment: Selectivity interaction (NanoBRET assay (in HEK293T cells)) EUB0001492b IRAK3; assay type: cell-based, HEK-293T
[13] = molecular target: T4, 5-hydroxytryptamine receptor 1A (Homo sapiens) (UniProt P08908); experiment: Selectivity interaction (GPCR panel (PDSP screen)) EUB0001492b HTR1A; conditions: at 10 µM
T4 sequence (whole entry): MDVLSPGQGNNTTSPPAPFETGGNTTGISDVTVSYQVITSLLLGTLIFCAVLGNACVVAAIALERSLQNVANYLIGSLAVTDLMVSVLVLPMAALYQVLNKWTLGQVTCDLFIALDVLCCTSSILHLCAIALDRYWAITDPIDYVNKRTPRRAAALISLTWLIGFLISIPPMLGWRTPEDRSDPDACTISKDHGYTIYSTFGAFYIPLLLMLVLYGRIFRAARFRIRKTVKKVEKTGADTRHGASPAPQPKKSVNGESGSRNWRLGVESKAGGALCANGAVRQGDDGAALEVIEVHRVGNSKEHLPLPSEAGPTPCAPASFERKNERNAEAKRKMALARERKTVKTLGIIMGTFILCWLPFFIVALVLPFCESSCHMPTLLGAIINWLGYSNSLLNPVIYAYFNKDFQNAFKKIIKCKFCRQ

[14] = molecular target: Beta-3 adrenergic receptor (Homo sapiens) (UniProt P13945); experiment: Selectivity interaction (GPCR panel (PDSP screen)) EUB0001492b ADRB3; conditions: at 10 µM
[15] = molecular target: Alpha-1D adrenergic receptor (Homo sapiens) (UniProt P25100); experiment: Selectivity interaction (GPCR panel (PDSP screen)) EUB0001492b ADRA1D; conditions: at 10 µM
[16] = molecular target: D(3) dopamine receptor (Homo sapiens, UniProt P35462); experiment: Selectivity interaction (GPCR panel (PDSP screen)) EUB0001492b DRD3; conditions: at 10 µM
[17] = molecular target: D(1A) dopamine receptor (Homo sapiens, UniProt P21728); experiment: Selectivity interaction (GPCR panel (PDSP screen)) EUB0001492b DRD1; conditions: at 10 µM
[18] = molecular target: AP2-associated protein kinase 1 (Homo sapiens, UniProt Q2M2I8); experiment: Selectivity interaction (Kinase panel (enzymatic assay, literature)) EUB0001492b AAK1
[19] = molecular target: D(4) dopamine receptor (Homo sapiens) (UniProt P21917); experiment: Selectivity interaction (GPCR panel (PDSP screen)) EUB0001492b DRD4; conditions: at 10 µM
Sequence of D(4) dopamine receptor (Homo sapiens) (P21917 whole entry): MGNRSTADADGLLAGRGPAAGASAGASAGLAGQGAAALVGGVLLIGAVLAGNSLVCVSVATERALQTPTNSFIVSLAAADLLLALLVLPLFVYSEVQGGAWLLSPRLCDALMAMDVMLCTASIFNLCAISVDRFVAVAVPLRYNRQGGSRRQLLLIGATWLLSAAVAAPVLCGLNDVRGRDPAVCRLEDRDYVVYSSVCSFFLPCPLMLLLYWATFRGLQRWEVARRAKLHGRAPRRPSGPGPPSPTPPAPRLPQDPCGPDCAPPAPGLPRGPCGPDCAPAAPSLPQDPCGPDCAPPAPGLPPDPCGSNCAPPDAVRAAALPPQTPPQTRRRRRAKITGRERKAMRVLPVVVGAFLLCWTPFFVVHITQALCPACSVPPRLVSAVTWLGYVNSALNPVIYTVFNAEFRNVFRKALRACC

[20] = molecular target: 5-hydroxytryptamine receptor 7 (Homo sapiens) (UniProt P34969); experiment: Selectivity interaction (GPCR panel (PDSP screen)) EUB0001492b HTR7; conditions: at 10 µM
[21] = molecular target: T5, Alpha-2C adrenergic receptor (Homo sapiens) (UniProt P18825); experiment: Selectivity interaction (GPCR panel (PDSP screen)) EUB0001492b ADRA2C; conditions: at 10 µM
T5 sequence (whole entry): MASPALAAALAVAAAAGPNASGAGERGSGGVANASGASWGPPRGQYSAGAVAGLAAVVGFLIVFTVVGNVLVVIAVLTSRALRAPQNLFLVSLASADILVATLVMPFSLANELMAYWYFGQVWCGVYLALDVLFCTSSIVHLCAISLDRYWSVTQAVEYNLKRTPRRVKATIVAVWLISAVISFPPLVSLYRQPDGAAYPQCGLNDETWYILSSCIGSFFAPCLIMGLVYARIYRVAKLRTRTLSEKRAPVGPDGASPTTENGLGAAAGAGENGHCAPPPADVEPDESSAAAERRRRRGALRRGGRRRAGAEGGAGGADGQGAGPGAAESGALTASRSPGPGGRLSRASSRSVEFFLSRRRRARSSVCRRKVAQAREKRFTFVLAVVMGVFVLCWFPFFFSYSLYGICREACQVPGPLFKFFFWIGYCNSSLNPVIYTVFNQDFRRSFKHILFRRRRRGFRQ

[22] = molecular target: Muscarinic acetylcholine receptor M3 (Homo sapiens, UniProt P20309); experiment: Selectivity interaction (GPCR panel (PDSP screen)) EUB0001492b CHRM3; conditions: at 10 µM
[23] = molecular target: 5-hydroxytryptamine receptor 1D (Homo sapiens) (UniProt P28221); experiment: Selectivity interaction (GPCR panel (PDSP screen)) EUB0001492b HTR1D; conditions: at 10 µM
[24] = molecular target: T6, Gamma-aminobutyric acid receptor subunit alpha-1 (Homo sapiens) (UniProt P14867); experiment: Selectivity interaction (GPCR panel (PDSP screen)) EUB0001492b GABRA1; conditions: at 10 µM
T6 sequence (whole entry): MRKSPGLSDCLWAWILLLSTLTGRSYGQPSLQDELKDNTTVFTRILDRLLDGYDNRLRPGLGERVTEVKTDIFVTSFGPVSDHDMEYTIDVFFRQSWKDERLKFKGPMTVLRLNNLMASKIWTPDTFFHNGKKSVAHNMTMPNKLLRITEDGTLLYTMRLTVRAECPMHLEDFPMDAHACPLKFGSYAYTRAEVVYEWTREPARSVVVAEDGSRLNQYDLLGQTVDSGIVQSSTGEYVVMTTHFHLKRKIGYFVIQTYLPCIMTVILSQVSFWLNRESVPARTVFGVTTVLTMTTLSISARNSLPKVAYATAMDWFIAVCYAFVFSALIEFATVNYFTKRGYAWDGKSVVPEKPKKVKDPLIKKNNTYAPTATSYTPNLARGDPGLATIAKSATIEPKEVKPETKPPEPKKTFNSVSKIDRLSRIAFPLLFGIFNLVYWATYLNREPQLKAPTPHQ

[25] = molecular target: Cyclin-G-associated kinase (Homo sapiens, UniProt O14976); experiment: Selectivity interaction (Kinase panel (enzymatic assay, literature)) EUB0001492b GAK
Sequence of Cyclin-G-associated kinase (O14976 whole entry): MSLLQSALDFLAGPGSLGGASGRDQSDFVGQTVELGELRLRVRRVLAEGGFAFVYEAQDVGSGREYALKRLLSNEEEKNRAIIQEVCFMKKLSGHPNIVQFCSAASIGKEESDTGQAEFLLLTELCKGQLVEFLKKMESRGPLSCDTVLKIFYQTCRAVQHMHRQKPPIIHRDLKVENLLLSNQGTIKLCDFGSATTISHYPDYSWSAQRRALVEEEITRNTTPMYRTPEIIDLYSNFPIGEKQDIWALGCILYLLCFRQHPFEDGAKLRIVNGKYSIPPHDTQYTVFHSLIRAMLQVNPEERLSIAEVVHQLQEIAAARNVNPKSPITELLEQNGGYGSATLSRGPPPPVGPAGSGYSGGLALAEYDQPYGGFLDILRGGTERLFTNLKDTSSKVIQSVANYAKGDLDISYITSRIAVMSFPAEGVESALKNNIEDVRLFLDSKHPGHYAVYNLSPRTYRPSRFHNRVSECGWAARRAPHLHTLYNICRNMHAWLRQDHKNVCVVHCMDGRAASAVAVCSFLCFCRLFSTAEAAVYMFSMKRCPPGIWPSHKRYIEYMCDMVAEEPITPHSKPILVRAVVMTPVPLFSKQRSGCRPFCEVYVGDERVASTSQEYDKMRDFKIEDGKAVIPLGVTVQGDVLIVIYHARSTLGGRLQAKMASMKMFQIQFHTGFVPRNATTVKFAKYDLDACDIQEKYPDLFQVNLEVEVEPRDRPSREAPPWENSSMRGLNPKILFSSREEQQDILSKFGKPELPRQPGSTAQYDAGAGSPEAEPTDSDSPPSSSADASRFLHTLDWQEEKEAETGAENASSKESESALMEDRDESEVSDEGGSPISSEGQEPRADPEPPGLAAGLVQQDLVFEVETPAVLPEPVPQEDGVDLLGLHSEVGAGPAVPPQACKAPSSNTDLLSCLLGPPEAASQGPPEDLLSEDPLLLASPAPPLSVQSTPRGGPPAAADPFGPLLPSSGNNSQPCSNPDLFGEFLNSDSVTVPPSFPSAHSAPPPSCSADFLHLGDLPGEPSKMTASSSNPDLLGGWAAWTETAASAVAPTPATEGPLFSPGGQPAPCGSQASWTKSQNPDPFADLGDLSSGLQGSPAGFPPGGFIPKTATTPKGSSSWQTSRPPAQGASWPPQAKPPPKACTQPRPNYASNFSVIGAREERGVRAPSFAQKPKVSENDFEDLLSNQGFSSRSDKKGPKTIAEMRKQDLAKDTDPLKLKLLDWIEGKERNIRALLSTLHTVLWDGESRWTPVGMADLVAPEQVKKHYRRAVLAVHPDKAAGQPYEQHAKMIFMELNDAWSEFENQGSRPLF

[26] = molecular target: RAC-gamma serine/threonine-protein kinase (Homo sapiens, UniProt Q9Y243); experiment: Selectivity interaction (NanoBRET assay (HEK293T cells)) EUB0001563a AKT3; assay type: cell-based; conditions: hek-293t
[27] = molecular target: Prostaglandin G/H synthase 1 (Homo sapiens) (UniProt P23219); experiment: Selectivity interaction (Eurofins-Panlabs Screen) EUB0001548a PTGS1; conditions: at 10 µM
[28] = molecular target: T7, Dual specificity tyrosine-phosphorylation-regulated kinase 1B (Homo sapiens, UniProt Q9Y463); experiment: Selectivity interaction (KinomeScan (DiscoverX)) EUB0001548a DYRK1B; conditions: at 1 µM
[29] = molecular target: Sodium/nucleoside cotransporter 1 (Homo sapiens) (UniProt O00337); experiment: Selectivity interaction (Eurofins-Panlabs Screen) EUB0001548a SLC28A1; conditions: at 10 µM
Sequence of Sodium/nucleoside cotransporter 1 (Homo sapiens) (O00337 whole entry): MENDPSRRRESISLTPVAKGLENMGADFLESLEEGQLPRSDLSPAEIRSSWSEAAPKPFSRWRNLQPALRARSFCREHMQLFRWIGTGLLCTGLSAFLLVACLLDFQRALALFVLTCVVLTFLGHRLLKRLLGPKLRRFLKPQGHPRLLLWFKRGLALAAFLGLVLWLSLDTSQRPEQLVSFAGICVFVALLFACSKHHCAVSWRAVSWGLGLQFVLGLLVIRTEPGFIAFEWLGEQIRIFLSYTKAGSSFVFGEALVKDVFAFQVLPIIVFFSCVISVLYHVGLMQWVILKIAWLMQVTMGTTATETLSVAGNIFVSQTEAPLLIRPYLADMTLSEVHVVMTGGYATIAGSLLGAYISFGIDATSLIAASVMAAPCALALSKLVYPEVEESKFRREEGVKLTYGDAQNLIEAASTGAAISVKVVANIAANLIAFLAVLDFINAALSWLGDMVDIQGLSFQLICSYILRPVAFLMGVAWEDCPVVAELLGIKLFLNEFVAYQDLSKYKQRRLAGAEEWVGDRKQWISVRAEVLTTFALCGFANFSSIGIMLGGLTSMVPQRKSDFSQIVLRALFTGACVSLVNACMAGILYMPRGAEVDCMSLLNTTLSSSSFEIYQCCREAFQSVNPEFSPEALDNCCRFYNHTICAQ

[30] = molecular target: Sodium channel protein type 2 subunit alpha (Homo sapiens) (UniProt Q99250); experiment: Selectivity interaction (Eurofins-Panlabs Screen) EUB0001548a SCN2A; conditions: at 10 µM
[31] = molecular target: Serine/threonine-protein kinase 10 (Homo sapiens) (UniProt O94804); experiment: Selectivity interaction (KinomeScan (DiscoverX)) EUB0001548a STK10; conditions: at 1 µM
[32] = molecular target: T1, Mitotic checkpoint serine/threonine-protein kinase BUB1; experiment: Selectivity interaction (TR-FRET kinase assay ) EUB0001548a BUB1
[33] = molecular target: 3',5'-cyclic-AMP phosphodiesterase 4A (Homo sapiens, UniProt P27815); experiment: Selectivity interaction (Eurofins-Panlabs Screen) EUB0001548a PDE4A; conditions: at 10 µM
[34] = molecular target: Adenosine receptor A2a (Homo sapiens, UniProt P29274); experiment: Selectivity interaction (Eurofins-Panlabs Screen) EUB0001548a ADORA2A; conditions: at 10 µM
[35] = molecular target: T7, Dual specificity tyrosine-phosphorylation-regulated kinase 1B; experiment: Selectivity interaction (Kinome Scan (DiscoverX, competition binding assay)) EUB0001548a DYRK1B
[36] = molecular target: T6, Gamma-aminobutyric acid receptor subunit alpha-1 (Homo sapiens); experiment: Selectivity interaction (Eurofins-Panlabs Screen) EUB0001548a GABRA1; conditions: at 10 µM
[37] = molecular target: T1, Mitotic checkpoint serine/threonine-protein kinase BUB1; experiment: Selectivity interaction (KinomeScan (DiscoverX, competition binding assay)) EUB0001548a BUB1
[38] = molecular target: Sodium/nucleoside cotransporter 1 (Homo sapiens, UniProt O00337); experiment: Selectivity interaction (Eurofins-Panlabs Screen (enzymatic assay)) EUB0001548a SLC28A1
Sequence of Sodium/nucleoside cotransporter 1 (O00337 whole entry): as above

Kd [1]: 480 nM
Kd [2]: 930 nM
Kd [3]: 360 nM
Kd [5]: 38 nM
SMILES: N[C@@H]1CCCN(c2c(/C=C3\SC(=O)NC3=O)cccc2-c2ccccc2)C1
Kd [4]: 420 nM
Kd [6]: 5 nM

IC50 [7]: > 20 µM
SMILES: COc1ccccc1Nc1nc(-c2nn(Cc3c(F)cc(OCCCO)cc3F)c3ccccc23)ncc1OC

% of inhibition [8]: 18.9%
Ki [9]: 2620 nM
% of inhibition [10]: 69.8%
% of inhibition [11]: 51.8%
IC50 [12]: > 20 µM
% of inhibition [13]: 14.4%
% of inhibition [14]: 18%
% of inhibition [15]: 36.7%
% of inhibition [16]: 51.5%
% of inhibition [17]: 25.7%
IC50 [18]: 188 nM
% of inhibition [19]: 44.6%
% of inhibition [20]: 13.7%
% of inhibition [21]: 13.7%
% of inhibition [22]: 21.1%
% of inhibition [23]: 26.9%
% of inhibition [24]: 34.5%
IC50 [25]: 272 nM
SMILES: CCC(F)(F)c1cc(N2CCC(S(C)(=O)=O)CC2)nc2sc(C(N)=O)c(N)c12 [BI-605906]

SMILES: C=CC(=O)Nc1ccc2[nH]c(=O)n(C3CCN(Cc4ccc(-c5ccc6c(c5)NC(=O)CO6)cc4)CC3)c2c1 [RL2578]
IC50 [26]: 18 µM

% of inhibition [27]: 54%
% of control [28]: 6.7%
% of inhibition [29]: 71%
% of inhibition [30]: 53%
% of control [31]: 0.6%
IC50 [32]: 4.3 nM
% of inhibition [33]: 52%
% of inhibition [34]: 67%
Kd [35]: > 30 µM
% of inhibition [36]: 60%
IC50 [37]: 3.3 nM
IC50 [38]: 370 nM
SMILES: COc1cnccc1Nc1nc(-c2nn(Cc3c(F)cc(OCCO)cc3F)c3ccccc23)ncc1OC
